The source of these data is ChEMBL document CHEMBL3132815, “Design, synthesis and activities of 4/5-acyl-2-aminoimidazolyl analogues of oroidin for biofilm inhibition” (Medchemcomm, 2013).

Series [1] relates to Staphylococcus aureus. The experiment in a line: Antibacterial activity against methicillin-resistant Staphylococcus aureus assessed as planktonic growth at 50 ug/ml. It counts as organism-based. The conditions noted are these: in vitro.
The test system of series [2] is Staphylococcus epidermidis. The experiment in a line: Antibacterial activity against Staphylococcus epidermidis 1457 assessed as planktonic growth at 50 ug/ml. It counts as organism-based.
Series [3] relates to Staphylococcus aureus. Briefly: Antibiofilm activity against methicillin-resistant Staphylococcus aureus 1094 assessed as inhibition of biofilm formation at 50 ug/ml. It counts as functional.
The subject of series [4] is Pseudomonas aeruginosa. The experiment in a line: Antibiofilm activity against Pseudomonas aeruginosa PAO1 assessed as inhibition of biofilm formation at 50 ug/ml. It counts as functional.
Series [5] concerns Staphylococcus aureus. Briefly: Antibiofilm activity against methicillin-resistant Staphylococcus aureus assessed as inhibition of biofilm formation at 50 ug/ml. It counts as functional.
The subject of series [6] is Staphylococcus aureus. The experiment in a line: Antibacterial activity against Staphylococcus aureus ATCC 35556 assessed as planktonic growth at 50 ug/ml. It counts as organism-based.
Series [7] has as its system Staphylococcus aureus. Briefly: Antibiofilm activity against Staphylococcus aureus ATCC 35556 assessed as inhibition of biofilm formation at 50 ug/ml. It counts as functional.
Series [8] concerns Staphylococcus aureus. Briefly: Antibacterial activity against methicillin-resistant Staphylococcus aureus 1094 assessed as planktonic growth at 50 ug/ml. It counts as organism-based.
Series [9] concerns Staphylococcus epidermidis. The experiment in a line: Antibiofilm activity against Staphylococcus epidermidis 1457 assessed as inhibition of biofilm formation at 50 ug/ml. It counts as functional.
Series [10] deals with Pseudomonas aeruginosa. The experiment in a line: Antibacterial activity against Pseudomonas aeruginosa PAO1 assessed as planktonic growth at 50 ug/ml. It counts as organism-based.
The subject of series [11] is Staphylococcus epidermidis. Briefly: Antibacterial activity against Staphylococcus epidermidis GTC 18972 assessed as planktonic growth at 50 ug/ml. It counts as organism-based.
Series [12] has as its system Staphylococcus epidermidis. The experiment in a line: Antibiofilm activity against Staphylococcus epidermidis GTC 18972 assessed as inhibition of biofilm formation at 50 ug/ml. It counts as functional.

A word on the inhibition: it is the drop in the measured response relative to a control, in per cent. For `O=C(NCCC(=O)c1cnc2ncccn12)c1cc(Br)c(Br)[nH]1`, the Activity with Staphylococcus aureus [1] is given as -1.91%; in series [2], 9.93%; in the series on Staphylococcus aureus [6] it was -6.51%; in the series on Staphylococcus aureus [8], 6.37%; with Pseudomonas aeruginosa [10], -13.02%; in series [11] it was 15.9%. Further, the inhibition at 50 µg/mL with Staphylococcus aureus [3] was 0.13%; with Pseudomonas aeruginosa [4], 8.66%; with Staphylococcus aureus [5], -124%; in the series on Staphylococcus aureus [7], -4.41%; in series [9], 4.48%; in series [12], -9.35%.

On to `O=C(NCCC(O)c1cnc2ncccn12)c1cc(Br)c(Br)[nH]1` (configuration not stated), for which the Activity is recorded as -5.1% with Staphylococcus aureus [1]; 10.2% in series [2]; 2.9% with Staphylococcus aureus [6]; -0.8% in the series on Staphylococcus aureus [8]; 14.1% in the series with Pseudomonas aeruginosa [10]; 14.8% in [11]. The inhibition at 50 µg/mL in the series with Staphylococcus aureus [3] was 26.2%; in the series on Pseudomonas aeruginosa [4], -1.4%; with Staphylococcus aureus [5] it was -20.9%; in the series with Staphylococcus aureus [7] it was -2.2%; in series [9], 19.6%; in series [12], -33.1%.

As for `O=C(CCN1C(=O)c2ccccc2C1=O)c1cnc2ncccn12`, the Activity is listed as 10.43% in the series with Staphylococcus aureus [1]; 15.13% in series [2]; 2.31% in the series with Staphylococcus aureus [6]; 15.94% with Staphylococcus aureus [8]; -16.12% in the series with Pseudomonas aeruginosa [10]; 23.58% in series [11]. The inhibition at 50 µg/mL in the series with Staphylococcus aureus [3] is -53.2%; with Pseudomonas aeruginosa [4] it was 23%; in the series with Staphylococcus aureus [5], 18.7%; in the series on Staphylococcus aureus [7], 6.92%; in series [9], 10.6%; in series [12] it was -11%.

Consider `O=C(NC/C=C/c1cnc2ncccn12)c1ccc[nH]1`, for which the Activity with Staphylococcus aureus [1] is 5%; in [2], -8.9%; with Staphylococcus aureus [6] it was -11.5%; in the series with Staphylococcus aureus [8], -0.8%; in the series with Pseudomonas aeruginosa [10], 14.6%; in [11], 0.1%. Further, the inhibition at 50 µg/mL with Staphylococcus aureus [3] was 47.8%; in the series with Pseudomonas aeruginosa [4], -2.9%; in the series on Staphylococcus aureus [5], -61%; in the series on Staphylococcus aureus [7], 16.4%; in [9] it was 22.8%; in series [12] it was 45.9%.

Turning to `O=C(NCCC(=O)c1cnc2ncccn12)c1ccc[nH]1`, the Activity is listed as 0.95% in the series with Staphylococcus aureus [1]; -3.27% in series [2]; 6.67% with Staphylococcus aureus [6]; 10.52% in the series with Staphylococcus aureus [8]; -15.89% in the series with Pseudomonas aeruginosa [10]; 11.45% in [11]. The inhibition at 50 µg/mL in the series on Staphylococcus aureus [3] is -25.1%; in the series on Pseudomonas aeruginosa [4] it was 13.2%; with Staphylococcus aureus [5] it was 16.9%; in the series with Staphylococcus aureus [7] it was -1.6%; in [9], 1.26%; in [12], -16.7%.

For the compound `O=C(CN1C(=O)c2ccccc2C1=O)c1cnc2ncccn12`, the Activity is 3.76% in the series with Staphylococcus aureus [1]; 11.1% in series [2]; -6.07% with Staphylococcus aureus [6]; 21.51% in the series with Staphylococcus aureus [8]; -0.69% in the series on Pseudomonas aeruginosa [10]; 29.67% in series [11]. The inhibition at 50 µg/mL with Staphylococcus aureus [3] is -67.5%; in the series with Pseudomonas aeruginosa [4], -7.64%; with Staphylococcus aureus [5], -97.9%; in the series on Staphylococcus aureus [7], -3.15%; in series [9], 6.4%; in [12] it was 8.1%.
